The text below walks through data of patent EP0111809A1, “Pyrazolo(4.3-b)(1.4)oxazines, processes for their preparation and their use as medicaments” (Troponwerke GmbH & Co. KG, priority 1982, dated 1984).

Where only a bound is given, the exact number is not on record here.

For one assay, the system named is Carrageenanödembildung. The experiment in a line: Carrageenan-induced oedema model, oral administration. Type of assay: in vivo. The note with it: Hemmung der Carrageenanödembildung nach oraler Gabe. The source says: Die erfindungsgemäßen Verbindungen sind auch in-vivo wirksam. Diese Wirkung wird durch die Messung der Hemmung der Leukozytenmigration nach an sich bekannten Methoden nachgewiesen (vgl. Higgs et al., Biochemical Pharmacology 28, 1959, (1979) und Eur. J. Pharmacol. 66,81 (1981)). Die erfindungsgemäßen Verbindungen reduzieren auch die ödembildung im Carrageenan-Entzündungsmodell, (vgl. Tabelle C) und hemmen die Metastasierung von B-16 Melanom (nach Honn, et.al. Science 212, 1981).
(In general: The carrageenan paw model is a standard test of acute inflammation.)

In assay [1] the test system is Lipoxygenase in PMN-Leukozyten. The experiment in a line: Inhibition of lipoxygenase in PMN leukocytes (release of 5-HETE). Particulars: species (human or rabbit) not given. Type of assay: cell-based. From the text: Der Nachweis der lipoxygenasehemmenden Eigenschaften der neuen, erfindungsgemäßen Verbindungen erfolgt analog der Methode von Bailey et al., J. Biol. Chem. 255, 5996, 1980 und nach Blackwell and Flower, Prostaglandins 16, 417, 1978. Bei dieser Testmethode wird der Metabolismus radioaktiv markierter Arachidonsäure an gewaschenen Humanthrombozyten untersucht. Bei diesem in-vitro-Test werden die radioaktiv markierten Metaboliten aus dem Reaktionsansatz extrahiert und dünnschichtchromatographisch getrennt. Das Autoradiogramm wird mit Dünnschichtscanner ausgewertet. Bei diesen Testbedingungen werden die markierten Metaboliten von der nicht umgesetzten Arachidonsäure getrennt und sind anschließend auszuwerten. Die Verteilung der Radioaktivität auf die während der Metabolisierung gebildeten Cyclooxygenaseprodukte Thromboxan B2 (TXB2) und 12-Hydroxy-5.8.10-heptadekatriensäure (HHT) bzw. das Lipoxygenaseprodukt 12-Hydroxy-5.8.11.14-eikosa- tetraensäure (HETE) unter dem Einfluß der Inhibitoren stellt ein Maß für die Hemmung der Enzyme dar.
Analog dem o.a. Test lassen sich die lipoxygenasehemmenden Eigenschaften der neuen, erfindungsgemäßen Verbindungen auch an Leukozyten nachweisen. Die polymorphkernigen Leukozyten des Menschen und des Kaninchens metabolisieren die Arachidonsäure zu 5-Hydroxy-5.8.11.14-eikosatetraensäure (5-HETE) und Leukotrien B4 (5S, 12R-Dihydroxy-6 cis, 8.10 trans, 14 ciseikosatetraensäure). Die Hemmung der Freisetzung von 5-HETE und Leukotrien B4 aus den Leukozyten stellt ein Maß für den lipoxygenasehemmenden Effekt der neuen, erfindungsgemäßen Verbindungen dar (vgl. Tabelle A).
Der Test mit den Humanleukozyten wird nach Borgeat and Samuelsson (J.Biol. Chem. 254, 2643, 1979 und Proc. Natl. Acad. Sci. U.S.A. 76, 2148, 1979), mit Kaninchenleukozyten nach Walker and Parish (Intern. Archs. Allergy Appl. Immun. 66, 83, 1981) durchgeführt.

The test system of another assay is Hyperalgesie. The experiment in a line: Randall-Selitto hyperalgesia test, oral administration. Particulars: Hemmung der Hyperalgesie nach Randall-Selitto nach oraler Gabe. It counts as in vivo. The source says:
Die erfindungsgemäßen Verbindungen sind auch in vivo wirksam im Hyperalgesie-Test nach Randall-Selitto, vgl. Tabelle B (Randall, L.O., Selitto, J., Arch. Int. Pharmakodyn, 111, 209-219, 1957).

In the case of `CCCc1n[nH]c2c1OC(c1ccccc1)=C(c1ccccc1)N2C` [Beispiel 5, 7-Methyl-3-propyl-5,6-diphenylpyrazolo[4.3-b][1.4]oxazin], the “DE50[mg/kg], oral” value in the assay on Carrageenanödembildung is 14,2 mg/kg. Besides, the “Minimale Konzentration (mol/l) für die Hemmung der Lipoxygenase in PMN-Leukozyten (5-HETE)” value (shortened to “Minimale Konzentration”) in assay [1] is listed as > 10^-5 mol/l.

In the case of `CC(=O)n1nc(C)c2c1N(C)C(c1ccccc1)=C(c1ccccc1)O2` [Beispiel 6, 1-Acetyl-3,7-dimethyl-5.6-diphenylpyrazolo[4.3-b][1.4]-oxazin], the “DE50[mg/kg], oral” value in the assay on Carrageenanödembildung is recorded as 2,5 mg/kg. Further, the “Minimale Konzentration” value in assay [1] is 5 . 10^-6 mol/l.

In the case of `CN1C=COc2cn[nH]c21` [Beispiel 1, 7-Methylpyrazolo[4.3-b][1.4]oxazin], the “DE50[mg/kg], oral” value is 13,3 mg/kg in the assay with Carrageenanödembildung and 19,7 mg/kg in the assay on Hyperalgesie. For the same compound, the “Minimale Konzentration” value in assay [1] is reported as > 10^-5 mol/l.

In the case of “2-Methyl-5-phenylpyrazolo[4.3-b][1.4]oxazin [Beispiel 2]”, the “DE50[mg/kg], oral” value in the assay on Carrageenanödembildung is 10,3 mg/kg; in the assay on Hyperalgesie, 0,80 mg/kg. The “Minimale Konzentration” value in assay [1] is listed as 5 . 10^-6 mol/l.

In the case of `CC(C)c1n[nH]c2c1OC(c1ccccc1)C(c1ccccc1)N2C` (centres unmarked) [compound 7], in assay [1], the “Minimale Konzentration” value is 5 . 10^-6 mol/l.

On to `CN1c2[nH]ncc2O[C@@H](c2ccccc2)[C@H]1c1ccccc1` (relative stereo) [Beispiel 3, cis-7-Methyl-5,6-diphenylpyrazolo[4.3-b][1.4]oxazin], for which the “DE50[mg/kg], oral” value in the assay with Carrageenanödembildung was 12,7 mg/kg; with Hyperalgesie, 1,23 mg/kg. For the same compound, the “Minimale Konzentration” value in assay [1] is listed as 5 . 10^-6 mol/l.

As for `CN1c2[nH]ncc2OC(c2ccccc2)C1c1ccccc1` (centres unmarked) [compound 10], the “Minimale Konzentration” value in assay [1] is on record as 5.10^-6 mol/l.

Consider `Cc1n[nH]c2c1OC(c1ccccc1)=C(c1ccccc1)N2C` [Beispiel 4, 3,7-Dimethyl-5,6-diphenylpyrazolo[4.3-b][1.4]oxazin], for which the “DE50[mg/kg], oral” value is on record as 11,3 mg/kg in the assay with Carrageenanödembildung and 7,7 mg/kg in the assay with Hyperalgesie. Further, the “Minimale Konzentration” value in assay [1] was 10^-5 mol/l.

As to `CN1CC(c2ccccc2)Oc2cn(C)nc21` (centres unmarked) [compound 9], the “Minimale Konzentration” value in assay [1] is 10^-5 mol/l.

For the compound `CN1CCOc2cn(Cc3ccc(Cl)c(Cl)c3)nc21` [compound 8], the “Minimale Konzentration” value in assay [1] was 10^-5 mol/l.
